Tested on: 966289-007-R4-J1-PDC complex spheroid viability
Experiment: Anticancer human tumor 966289-007-R4-J1-PDC patient-derived pancreatic adenocarcinoma cell line growth inhibition [RAS]
Conditions: for IC50: curve of first compound; for viability, T/C: stronger effect = lower value
How it was run: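 Tumour cells grown as complex spheroids with HUVEC endothelial cells and mesenchymal stem cells, treated with RAS pathway inhibitor combinations. Each agent spans half-log steps from near clinical Cmax, or 10 microM where Cmax is unknown.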
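Note: spheroids exposed to agents for one week before readout.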
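Throughout, for viability, T/C: percent viability relative to DMSO vehicle control wells as 100%.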

Question: How did the IC50 (second compound 0.000949 µM) turn out when `CCN1CCN(Cc2ccc(Nc3ncc(F)c(-c4cc(F)c5nc(C)n(C(C)C)c5c4)n3)nc2)CC1` + CCn1c(-c2cc(N3CCN(C)CC3)cnc2C(C)OC)c2c3cc(ccc31)-c1csc(n1)CC(NC(=O)C1CC1C)C(=O)N1CCCC(N1)C(=O)OCC(C)(C)C2 was run?
Answer: > 1000 nM

Question: What about the IC50 (second compound 0.003 µM) of the same compound?
Answer: > 1000 nM

Question: And the IC50 (second compound 0.00949 µM)?
Answer: > 1000 nM

Question: What about the IC50 (second compound 0.03 µM) of the same compound?
Answer: > 1000 nM

Question: What about the IC50 (second compound 0.0949 µM) of the same compound?
Answer: > 1000 nM

Question: What about the IC50 (second compound 0.3 µM) of the same compound?
Answer: > 1000 nM

Question: And the viability, T/C (second compound 0.000949 µM, first compound 0.00316 µM)?
Answer: 122%

Question: What about the viability, T/C (second compound 0.000949 µM, first compound 0.01 µM) of the same compound?
Answer: 116%

Question: And the viability, T/C (second compound 0.000949 µM, first compound 0.0316 µM)?
Answer: 130%

Question: And the viability, T/C (second compound 0.000949 µM, first compound 0.1 µM)?
Answer: 86.2%

Question: And the viability, T/C (second compound 0.000949 µM, first compound 0.316 µM)?
Answer: 92.2%

Question: And the viability, T/C (second compound 0.000949 µM, first compound 1 µM)?
Answer: 89.8%

Question: What about the viability, T/C (second compound 0.003 µM, first compound 0.00316 µM) of the same compound?
Answer: 109%

Question: What about the viability, T/C (second compound 0.003 µM, first compound 0.01 µM) of the same compound?
Answer: 121%

Question: And the viability, T/C (second compound 0.003 µM, first compound 0.0316 µM)?
Answer: 112%

Question: What about the viability, T/C (second compound 0.003 µM, first compound 0.1 µM) of the same compound?
Answer: 95.7%

Question: What about the viability, T/C (second compound 0.003 µM, first compound 0.316 µM) of the same compound?
Answer: 114%

Question: And the viability, T/C (second compound 0.003 µM, first compound 1 µM)?
Answer: 85%

Question: And the viability, T/C (second compound 0.00949 µM, first compound 0.00316 µM)?
Answer: 93.9%

Question: What about the viability, T/C (second compound 0.00949 µM, first compound 0.01 µM) of the same compound?
Answer: 116%

Question: And the viability, T/C (second compound 0.00949 µM, first compound 0.0316 µM)?
Answer: 120%

Question: What about the viability, T/C (second compound 0.00949 µM, first compound 0.1 µM) of the same compound?
Answer: 97.7%

Question: And the viability, T/C (second compound 0.00949 µM, first compound 0.316 µM)?
Answer: 98.7%

Question: What about the viability, T/C (second compound 0.00949 µM, first compound 1 µM) of the same compound?
Answer: 96.7%

Question: And the viability, T/C (second compound 0.03 µM, first compound 0.00316 µM)?
Answer: 85.3%

Question: And the viability, T/C (second compound 0.03 µM, first compound 0.01 µM)?
Answer: 105%

Question: And the viability, T/C (second compound 0.03 µM, first compound 0.0316 µM)?
Answer: 129%

Question: And the viability, T/C (second compound 0.03 µM, first compound 0.1 µM)?
Answer: 95%

Question: And the viability, T/C (second compound 0.03 µM, first compound 0.316 µM)?
Answer: 97.8%

Question: And the viability, T/C (second compound 0.03 µM, first compound 1 µM)?
Answer: 85.1%

Question: What about the viability, T/C (second compound 0.0949 µM, first compound 0.00316 µM) of the same compound?
Answer: 129%

Question: And the viability, T/C (second compound 0.0949 µM, first compound 0.01 µM)?
Answer: 100%

Question: What about the viability, T/C (second compound 0.0949 µM, first compound 0.0316 µM) of the same compound?
Answer: 115%

Question: What about the viability, T/C (second compound 0.0949 µM, first compound 0.1 µM) of the same compound?
Answer: 95.9%

Question: What about the viability, T/C (second compound 0.0949 µM, first compound 0.316 µM) of the same compound?
Answer: 86.9%

Question: And the viability, T/C (second compound 0.0949 µM, first compound 1 µM)?
Answer: 88.6%

Question: What about the viability, T/C (second compound 0.3 µM, first compound 0.00316 µM) of the same compound?
Answer: 101%

Question: And the viability, T/C (second compound 0.3 µM, first compound 0.01 µM)?
Answer: 89.8%

Question: And the viability, T/C (second compound 0.3 µM, first compound 0.0316 µM)?
Answer: 114%

Question: What about the viability, T/C (second compound 0.3 µM, first compound 0.1 µM) of the same compound?
Answer: 111%

Question: What about the viability, T/C (second compound 0.3 µM, first compound 0.316 µM) of the same compound?
Answer: 97.9%

Question: What about the viability, T/C (second compound 0.3 µM, first compound 1 µM) of the same compound?
Answer: 79%

Reference: PubChem BioAssay AID2060897 (Molecular Pharmacology Branch, DTP, NCI, 2025)
